Values joined by “and” are separate entries in the source; they are usually repeats but may differ in a detail not shown here. Equal values may be shown once. Read-outs that look alike come from different tables or passages of the source.
Key:
[1] = the molecule shown is the open-chain precursor, rcm bond
[2] = target: HIS-Keap1 full length / Biotin-Nrf2 (16-mer) (Homo sapiens, UniProt Q14145); test: biochemical
[3] = tested on: NQO1 activation in BEAS-2B cells; test: BEAS-2B cellular MTT assay of NQO1 activation, 0.3% HSA; format: cell-based; settings: BEAS+, read-out: BEAS+ EC50
In short: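 MTT read-out in BEAS-2B cells grown in BEBM with SingleQuots, no GA-1000, kept below 70% confluence; plates coated with collagen, with 0.3% or 0% HSA medium, seeded to 95-100% confluency at 48 h, 37 °C, 5% CO2.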

[4] = tested on: NQO1 activation in BEAS-2B cells; test: BEAS-2B cellular MTT assay of NQO1 activation, 0% HSA; format: cell-based; settings: serum free, read-out: BEAS EC50 (nM) serum free
In short: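 For the 0% HSA condition, cells were seeded into collagen plates in HSA-free medium. Culture was BEAS-2B in BEBM plus BEGM SingleQuots lacking GA-1000, held under 70% confluence, at a seeding density reaching 95-100% confluence by 48 h.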

Sequence of HIS-Keap1 full length / Biotin-Nrf2 (16-mer) (Q14145 whole entry): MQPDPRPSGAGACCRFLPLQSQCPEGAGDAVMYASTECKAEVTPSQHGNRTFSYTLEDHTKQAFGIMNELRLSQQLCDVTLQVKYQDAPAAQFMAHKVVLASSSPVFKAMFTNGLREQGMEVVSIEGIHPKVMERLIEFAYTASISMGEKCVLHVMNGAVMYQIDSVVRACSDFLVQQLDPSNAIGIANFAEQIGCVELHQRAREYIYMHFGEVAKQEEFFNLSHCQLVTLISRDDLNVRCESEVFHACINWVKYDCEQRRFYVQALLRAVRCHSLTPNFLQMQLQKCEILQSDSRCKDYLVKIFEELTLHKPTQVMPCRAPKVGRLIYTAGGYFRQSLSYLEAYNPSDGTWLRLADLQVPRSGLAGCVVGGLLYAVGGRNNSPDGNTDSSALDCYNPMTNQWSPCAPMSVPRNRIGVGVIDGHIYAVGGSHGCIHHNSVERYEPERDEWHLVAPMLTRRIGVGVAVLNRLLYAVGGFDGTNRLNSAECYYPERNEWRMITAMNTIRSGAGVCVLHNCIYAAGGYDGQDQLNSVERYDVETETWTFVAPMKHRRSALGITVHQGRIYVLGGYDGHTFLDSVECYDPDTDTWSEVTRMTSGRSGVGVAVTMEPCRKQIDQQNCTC

Q: For “amide of methyl 3-(1-(but-3-en-1-yl)-4-methyl-1H-benzo[d][1,2,3]triazol-5-yl)-3-(1,2,3,4-tetrahydroisoquinolin-7-yl)propanoate with 5-(but-3-en-1-yloxy)pyrazine-2-carboxylic acid”, which ring closure, crude yield ([1]; 23-membered ring, Grubbs catalyst (General procedure 7)) is on record?
A: 42%

Q: Which results are given for `O=C(O)CC1c2ccc(nc2)OCCCCOc2ccc(cc2)C(=O)N2CCc3ccc1cc3C2` (centres unmarked) [Compound 211, 2-(4-oxo-31,32,33,34-tetrahydro-6,11-dioxa-3(7,2)-isoquinolina-1(5,2)-pyridina-5(1,4)-benzenacycloundecaphane-2-yl)acetic Acid]?
A: IC50 [2]: 10.7 nM and 24.5 nM; EC50 [3]: 1730 nM; EC50 ([3]; Homo sapiens): 2210 nM; EC50 ([4]; Homo sapiens): 829 nM; EC50 [4]: 574 nM; ring closure, yield of all isomers (from COC(=O)CC(c1ccc(OCCCCOc2ccc(C(=O)OC(C)(C)C)cc2)nc1)c1ccc2c(c1)CN(C(=O)OC(C)(C)C)CC2, amide bond, 3 steps): 7.8%

Q: For `COC(=O)C[C@@H]1c2ccc3c(c2)CN(CC3)C(=O)c2ccc(cc2)C=CCCCCn2cnc3c(C)c1ccc32`, which ring closure, yield of all isomers (from C=CCCCCn1cnc2c(C)c([C@H](CC(=O)OC)c3ccc4c(c3)CN(C(=O)c3ccc(C=C)cc3)CC4)ccc21, rcm bond, Grubbs 2nd generation catalyst, 48.0 h) is on record?
A: 27%

Q: Which ring closure, crude yield ([1]; 21-membered ring, Grubbs catalyst (General procedure 15)) does the source give for “amide of 7-(3-methoxy-3-oxo-1-(2-(pent-4-en-1-yloxy)pyrimidin-5-yl)propyl)-1,2,3,4-tetrahydroisoquinolin-2-ium chloride with 4-vinylbenzoic acid” here?
A: 20%

Q: With “amide of benzyl 3-(6-(pent-4-en-1-yloxy)pyridin-3-yl)-3-(1,2,3,4-tetrahydroisoquinolin-7-yl)propanoate with 1-methyl-5-vinyl-1H-pyrrolo[2,3-b]pyridine-2-carboxylic acid” as the molecule, how does the ring closure, crude yield ([1]; 22-membered ring, Grubbs catalyst (General procedure 15)) read?
A: 51%

Q: With `COC(=O)CC1c2ccc3c(c2)CN(CC3)C(=O)c2ccc(cc2)C=CCCCOc2cc(C)c1cn2` (centres unmarked) as the molecule, how does the ring closure, yield of all isomers (from C=CCCCOc1cc(C)c(C(CC(=O)OC)c2ccc3c(c2)CN(C(=O)c2ccc(C=C)cc2)CC3)cn1, rcm bond, Grubbs catalyst) read?
A: 64%
